The values that follow are results of earlier work, collected in patent publication US20080286343A1, “Solid form” (priority 2007, published 2008).

The conditions of this series: g water per 1 g active; slightly soluble.

Structures are written as SMILES.

For `Cn1c(=O)c2[nH]cnc2n(C)c1=O` [Theophylline], the “Solubility in water (1 g in ... g water)” value is listed as 100-1000 g water.
